The values that follow are results of earlier work, collected in US20250261646A1, “SOLID COMPOSITION AS A SOLUBLE PRECURSOR OF AN ECO-FRIENDLY AND EFFECTIVE METAL-BASED BIOCIDE, PROCESS AND USE THEREOF” (BIOREM ENGINEERING SA, priority 2022, published 2025).

For the data set the following is noted: for comparison.

Structures are written as SMILES.

Take `[O]=[Zn]` [ZnO, zinc(II) oxide]: the solubility is 4 µg/mL.
